Assay results as given in ChEMBL document CHEMBL1156270, “Small molecule JNK (c-Jun N-terminal kinase) inhibitors” (J Med Chem, 2010).
One block for each molecule: values may come before it.

Tests used:
Mus musculus [1] = assay: Reduction of body weight in diet-induced obese mouse at 30 mg/kg, po for 24 days; format: functional; parameters: scale not given: the % may be the effect or the level left
[2] = target: Mitogen-activated protein kinase 9 (Homo sapiens, UniProt P45984); assay: Inhibition of JNK2
Chain of Mitogen-activated protein kinase 9 (P45984 whole entry): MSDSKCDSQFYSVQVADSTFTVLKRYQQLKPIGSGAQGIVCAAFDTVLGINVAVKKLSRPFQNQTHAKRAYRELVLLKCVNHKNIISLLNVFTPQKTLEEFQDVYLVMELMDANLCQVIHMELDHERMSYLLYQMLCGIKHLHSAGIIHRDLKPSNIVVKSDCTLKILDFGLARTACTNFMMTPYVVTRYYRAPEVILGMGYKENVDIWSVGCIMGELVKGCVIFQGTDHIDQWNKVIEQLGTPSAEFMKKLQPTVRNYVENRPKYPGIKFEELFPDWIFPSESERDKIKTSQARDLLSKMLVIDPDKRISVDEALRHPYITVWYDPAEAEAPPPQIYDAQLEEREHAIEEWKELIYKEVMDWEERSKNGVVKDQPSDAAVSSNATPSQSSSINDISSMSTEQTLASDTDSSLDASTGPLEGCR

[3] = target: T1, Mitogen-activated protein kinase 8 (Homo sapiens, UniProt P45983); assay: Inhibition of JNK1
T1 sequence (P45983 whole entry): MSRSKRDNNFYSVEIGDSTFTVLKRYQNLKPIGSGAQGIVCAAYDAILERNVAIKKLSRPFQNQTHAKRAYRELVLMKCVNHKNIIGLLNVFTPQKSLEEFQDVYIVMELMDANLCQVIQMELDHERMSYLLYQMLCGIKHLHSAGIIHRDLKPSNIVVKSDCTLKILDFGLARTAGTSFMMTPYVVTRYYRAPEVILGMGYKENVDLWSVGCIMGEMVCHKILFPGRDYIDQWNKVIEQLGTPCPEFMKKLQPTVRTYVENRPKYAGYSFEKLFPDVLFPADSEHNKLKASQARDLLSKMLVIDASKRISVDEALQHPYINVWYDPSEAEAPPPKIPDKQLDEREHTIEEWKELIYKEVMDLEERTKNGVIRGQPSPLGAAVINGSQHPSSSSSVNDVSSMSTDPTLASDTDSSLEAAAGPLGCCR

Mus musculus [4] = assay: Reduction of fat mass in diet-induced obese mouse at 30 mg/kg, po for 24 days relative to control; format: functional; parameters: scale not given: the % may be the effect or the level left
[5] = target: Mitogen-activated protein kinase 10 (Homo sapiens, UniProt P53779); assay: Inhibition of JNK3
Chain of Mitogen-activated protein kinase 10 (P53779 whole entry): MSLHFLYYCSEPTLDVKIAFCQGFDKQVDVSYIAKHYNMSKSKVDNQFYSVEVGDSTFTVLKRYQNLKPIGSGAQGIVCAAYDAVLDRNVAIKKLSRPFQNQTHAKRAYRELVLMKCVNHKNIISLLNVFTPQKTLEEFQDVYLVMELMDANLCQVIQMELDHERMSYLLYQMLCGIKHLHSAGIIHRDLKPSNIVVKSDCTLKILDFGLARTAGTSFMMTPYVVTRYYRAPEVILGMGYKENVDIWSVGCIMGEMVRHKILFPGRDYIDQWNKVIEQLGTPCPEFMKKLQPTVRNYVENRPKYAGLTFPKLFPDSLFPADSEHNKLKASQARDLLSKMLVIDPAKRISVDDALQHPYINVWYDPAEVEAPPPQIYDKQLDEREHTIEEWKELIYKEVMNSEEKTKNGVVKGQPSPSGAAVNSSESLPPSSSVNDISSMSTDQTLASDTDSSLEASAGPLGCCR

SCG = assay: Protection against NGF deprivation-induced neuronal apoptosis in rat SCG cells after 24 hrs by MTT assay; format: functional, cell-based
Mus musculus [6] = species on record: Mus musculus; assay: Inhibition of LPS-induced TNFalpha production in mouse; format: functional
[7] = Oral bioavailability in rat; format: ADME, organism-based; settings: in vivo
[8] = target: Mitogen-activated protein kinase 14 (Homo sapiens, UniProt Q16539); assay: Inhibition of p38alpha
Chain of Mitogen-activated protein kinase 14 (Q16539 whole entry): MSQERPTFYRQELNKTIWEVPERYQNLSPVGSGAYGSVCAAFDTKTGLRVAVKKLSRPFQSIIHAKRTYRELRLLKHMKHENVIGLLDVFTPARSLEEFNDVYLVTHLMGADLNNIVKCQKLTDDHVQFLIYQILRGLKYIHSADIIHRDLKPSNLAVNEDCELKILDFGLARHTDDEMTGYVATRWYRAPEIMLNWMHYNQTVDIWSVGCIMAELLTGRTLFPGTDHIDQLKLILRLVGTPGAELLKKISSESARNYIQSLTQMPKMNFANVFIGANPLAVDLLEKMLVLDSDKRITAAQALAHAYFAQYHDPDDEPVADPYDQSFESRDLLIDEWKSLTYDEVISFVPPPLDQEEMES

[9] = target: T1, Mitogen-activated protein kinase 8; assay: Binding affinity to JNK1

Molecule: O[C@H]1CC[C@H](Nc2nccc(-c3c[nH]nc3C3CCCOC3)n2)CC1 (some centres undefined)
Activity (Mus musculus [1]): 13% | Ki [2]: 17 nM | Ki [3]: 9 nM | Activity (Mus musculus [4]): 30.1% | Ki [5]: 16 nM

Molecule: O=C(NCc1ccc(S(=O)(=O)N2CCC(n3nnc4ccccc43)CC2)s1)c1ccc(Cl)cc1
IC50 (SCG): 1700 nM

Molecule: N#C/C(=C1/Nc2ccccc2S1)c1ccnc(NCCc2cccnc2)n1
ED50 (Mus musculus [6]): 3 mg/kg | bioavailability [7]: 38%

Molecule: CCCNc1nccc(-c2c(-c3ccc(F)cc3)nc3n2[C@H](Cc2ccc(OC)cc2)CC3)n1
IC50 [8]: 54 nM | IC50 [5]: 10.9 nM

Molecule: H-RPKRPTTLNLF-OH
Kd [9]: 420 nM

Second part, the molecule after the results:

IC50 [8]: 46 nM
Molecule: O=C(NCCCn1cnc(-c2ccc(F)cc2)c1-c1ccncc1)c1ccccc1

IC50 [3]: > 10000 nM
Molecule: c1ccc(Nc2ccc3c(-c4ccccc4)n[nH]c3c2)cc1

Ki [2]: 6 nM | Ki [3]: 3 nM | Ki [5]: 5 nM
Molecule: CN(C)c1c(-c2ccnc(N[C@H]3CC[C@H](O)CC3)n2)cnn1Cc1ccccc1

IC50 [3]: 101 nM | IC50 [8]: 903 nM | IC50 [5]: 3 nM
Molecule: CN(C)CCCC(=O)Nc1cc(C(=O)O)cc(-c2n[nH]c3cc(Nc4ccccc4Cl)ccc23)c1
